Six compounds from patent US20250099420A1, “SMALL MOLECULE MODULATORS OF GPR139 COMPLEX” (University of Florida Research Foundation, Incorporated, priority 2022, published 2025) can be followed below.

Molecules are shown by their SMILES. pEC50: −log10 of the molar value. Like-named read-outs stand apart in the source and are kept apart here.

Broadly, the pEC50 is −log10 of the EC50, conventionally taken in molar units.

One data set concerns parental HEK cells. In words: HEK parental Agonist Counterscreen Assay (non-transfected cells). Format: cell-based. The following applies: for Averaged Max % Response (±St. Dev.): activity relative to known control; for pEC50: Homo sapiens, HEK293. An excerpt:
The high control for the agonist counterscreen was Forskolin not acetylcholine.
Background: The purpose of a counterscreen is to sort out artefacts and off-target activity.

A further data set concerns the target T1, GPR139 (Homo sapiens, UniProt Q6DWJ6).
T1 sequence (Q6DWJ6 1-353): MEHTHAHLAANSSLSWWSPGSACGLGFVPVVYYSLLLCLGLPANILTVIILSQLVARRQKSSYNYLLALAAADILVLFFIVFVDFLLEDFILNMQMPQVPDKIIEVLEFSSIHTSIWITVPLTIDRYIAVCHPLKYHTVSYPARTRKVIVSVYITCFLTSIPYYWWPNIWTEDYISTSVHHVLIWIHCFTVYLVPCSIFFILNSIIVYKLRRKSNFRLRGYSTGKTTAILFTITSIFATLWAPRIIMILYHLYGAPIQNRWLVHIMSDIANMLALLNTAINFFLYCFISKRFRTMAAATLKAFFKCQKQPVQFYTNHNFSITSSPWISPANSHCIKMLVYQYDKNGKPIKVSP
In words: GPR139 Agonist titration / agonist counterscreen assay (calcium detection, HEK-GPR139 cells). Format: cell-based. On the set-up: expressed in transfected cells; host or cells: HEK Aequorin cells, Maxcyte transient transfection. The following applies: GPR139 Agonist Activity; for pEC50: read-out: EC50; for Averaged Max % Response (±St. Dev.): activity relative to known control. As for the experimental part:
GPR activity was assessed using a calcium detection assay. […] Negative control samples were treated with DMSO. […] Intracellular calcium was measured using Calcium 5.

Where [1] appears, read: HEK Agonist Activity section of Table 4 (parental HEK counterscreen).
Where [2] appears, read: values printed in E-notation without unit.
Setting [3] is: HEK Agonist Activity, parental non-transfected HEK cells.

For `CCCCC(=O)OCC(=O)NCc1ccc(C)cc1` [SR-01000042109], in the data set with parental HEK cells (HEK Agonist Activity section), the “Lipophilic Efficiency (logD)” value was determined as 2.18, the “Lipophilic Efficiency (logP)” value is reported as 2.18 and the “Averaged Max % Response (±St. Dev.)” value stood at 21.12 ± 3.06%. The pEC50 in the data set on parental HEK cells (setting [1]) was less than 4.82. For the same compound, at GPR139, the “Efficiency Ligand” value is reported as 0.47, the “Hill Slope” value was 1.40, the “Lipophilic Efficiency (logD)” value was found to be 3.80 and the “Lipophilic Efficiency (logP)” value was 3.80. Further, the “Averaged Max % Response (±St. Dev.)” value on GPR139 is 92.84 ± 12.11%. At GPR139 (HEK-GPR139 cells), the negative logarithm of the EC50 (pEC50) is 6.44.
Take `O=C(CN1C(=O)NC2(CCc3ccccc3C2)C1=O)Nc1cccc2ccccc12` (stereo not drawn) [SR-01000042749]: in the data set with parental HEK cells (HEK Agonist Activity section), the “Lipophilic Efficiency (logD)” value was 1.39, the “Lipophilic Efficiency (logP)” value worked out at 1.39 and the “Averaged Max % Response (±St. Dev.)” value is −8.38 ± 6.55%. Moreover, the pEC50 with parental HEK cells (setting [1]) was less than 4.85. Besides, on GPR139, the “Efficiency Ligand” value is listed as 0.29, the “Hill Slope” value worked out at 0.27, the “Lipophilic Efficiency (logD)” value came out at 2.77 and the “Lipophilic Efficiency (logP)” value came out at 2.77. Besides, on GPR139, the “Averaged Max % Response (±St. Dev.)” value was 74.83 ± 7.16%. Also, on GPR139 (HEK-GPR139 cells), the pEC50 was 6.23.
On to `CC1CCCCN1C(=O)CN1C(=O)C2(CCc3ccccc3C2)NC1=S` (stereo not drawn) [SR-01000044433], for which, in the data set on parental HEK cells (HEK Agonist Activity section), the “Lipophilic Efficiency (logD)” value is 2.90, the “Lipophilic Efficiency (logP)” value is 2.90 and the “Averaged Max % Response (±St. Dev.)” value is given as 12.49 ± 3.39%. The pEC50 with parental HEK cells (setting [1]) is less than 4.84. Moreover, on GPR139, the “Efficiency Ligand” value turned out to be 0.33, the “Hill Slope” value stood at 0.97, the “Lipophilic Efficiency (logD)” value was 4.10 and the “Lipophilic Efficiency (logP)” value is given as 4.10. The “Averaged Max % Response (±St. Dev.)” value on GPR139 worked out at 96.03 ± 12.11%. Further, on GPR139 (HEK-GPR139 cells), the pEC50 was 6.05.
As to `CCC1(c2ccc(Cl)cc2)NC(=O)N(CC(=O)N2CC3(C)CC2CC(C)(C)C3)C1=O` (stereo not drawn) [SR-01000045673], the results for the “Lipophilic Efficiency (logD)” value in the data set on parental HEK cells (HEK Agonist Activity section) and on GPR139 (based on logD) were 1.24 and 3.67, respectively. Further, the results for the “Lipophilic Efficiency (logP)” value in the data set on parental HEK cells (HEK Agonist Activity section) and on GPR139 (based on logP) were 1.24 and 3.67, respectively. In addition, the entries for the “Averaged Max % Response (±St. Dev.)” value in the data set on parental HEK cells (HEK Agonist Activity section) and at GPR139 were 4.34 ± 4.74% and 101.61 ± 5.25%, respectively. Besides, the pEC50 in the data set on parental HEK cells (setting [1]) is less than 4.84; at GPR139 (setting [2]) it was 7.27. Also, the “Hill Slope” value on GPR139 (fitted dose-response curve) was determined as 0.62. Besides, the “Efficiency Ligand” value at GPR139 (ligand efficiency) turned out to be 0.34.
`COc1cc(C(C)=O)ccc1OCC(=O)NC(C)CCc1ccccc1` (stereo not drawn) [SR-01000048295]: the “Lipophilic Efficiency (logD)” value in the data set with parental HEK cells (HEK Agonist Activity) came to 1.86; on GPR139 (based on logD), 4.43. Besides, the “Lipophilic Efficiency (logP)” value came to 1.86 in the data set with parental HEK cells (HEK Agonist Activity) and 4.43 on GPR139 (based on logP). The “Averaged Max % Response (±St. Dev.)” value with parental HEK cells (HEK Agonist Activity) is listed as 7.53 ± 4.49%; at GPR139, 102.89 ± 3.61%. The pEC50 is less than 4.84 with parental HEK cells (setting [3]) and 7.42 on GPR139 (setting [2]). Moreover, at GPR139 (fitted dose-response curve), the “Hill Slope” value was determined as 0.88. For the same compound, the “Efficiency Ligand” value on GPR139 (ligand efficiency) is on record as 0.40.
As to `Cc1ccc(C2(C)NC(=O)N(CC(=O)NCC(C)C)C2=O)cc1` (stereo not drawn) [SR-01000048367], the “Lipophilic Efficiency (logD)” value in the data set on parental HEK cells (HEK Agonist Activity) is 3.00; on GPR139 (based on logD), 5.64. For the same compound, the “Lipophilic Efficiency (logP)” value in the data set on parental HEK cells (HEK Agonist Activity) is listed as 3.00; at GPR139 (based on logP), 5.64. The “Averaged Max % Response (±St. Dev.)” value in the data set on parental HEK cells (HEK Agonist Activity) is on record as 8.71 ± 14.83%; at GPR139 it was 122.38 ± 5.77%. In addition, the pEC50 was less than 4.80 in the data set with parental HEK cells (setting [3]) and 7.44 on GPR139 (setting [2]). In addition, the “Hill Slope” value at GPR139 (fitted dose-response curve) is recorded as 0.74. The “Efficiency Ligand” value on GPR139 (ligand efficiency) is 0.45.
